Legend:
[1] = Solubility of free base in buffers of varying pH; format: physicochemical
Procedure: The solubility of a typical API (i.e., Compound 2 as disclosed herein) in free base form was evaluated in buffers of varying pH.

[2] = Stability of HCl salt at different temperatures for 8 hours; format: physicochemical
Procedure: The stability of a Compound 2 HCl salt at different temperatures for 8 hours is shown below. The initial purity at TO is 96.5%. […] Similar observation was also made for several other compounds of the invention.

Row | Structure (SMILES) | Ave. Conc. ([1]; 0.01N HCl) | Ave. Conc. ([1]; Water) | Ave. Conc. ([1]; pH 2.0) | Ave. Conc. ([1]; pH 3.0) | Ave. Conc. ([1]; pH 4.5) | Ave. Conc. ([1]; pH 6.8) | Purity (%) at 8 h ([2]; 50° C., 8 hours) | Purity (%) at 8 h ([2]; 80° C., 8 hours) | Purity (%) at 8 h ([2]; 100° C., 8 hours) | stability assessment of HCl salt ([2]; different temperatures, 8 hours) | initial purity ([2]; stability study, at TO (start))
1 | C=CC(=O)Nc1cc(Nc2nc(-c3ccnc(N4CCn5c(cc6c5CC(C)(C)C6)C4=O)c3CO)cn(C)c2=O)ccc1N1CCN(C2CCOCC2)C[C@@H]1C [Compound 2, N-(5-[[6-(2-[4,4-dimethyl-9-oxo-1,10-diazatricyclo[6.4.0.0^[2,6]]dodeca-2(6),7-dien-10-yl]-3-(hydroxymethyl)pyridin-4-yl)-4-methyl-3-oxopyrazin-2-yl]amino]-2-[(2S)-2-methyl-4-(oxan-4-yl)piperazin-1-yl]phenyl)prop-2-enamide] | 55.52 mg/mL | 0.09 mg/mL | 9.67 mg/mL | 2.07 mg/mL | 1.81 mg/mL | 0.02 mg/mL |  |  |  |  | 
2 | C=CC(=O)Nc1cc(Nc2nc(-c3ccnc(N4CCn5c(cc6c5CC(C)(C)C6)C4=O)c3CO)cn(C)c2=O)ccc1N1CCN(C2CCOCC2)C[C@@H]1C.Cl [Compound-2 HCl, N-(5-[[6-(2-[4,4-dimethyl-9-oxo-1,10-diazatricyclo[6.4.0.0^[2,6]]dodeca-2(6),7-dien-10-yl]-3-(hydroxymethyl)pyridin-4-yl)-4-methyl-3-oxopyrazin-2-yl]amino]-2-[(2S)-2-methyl-4-(oxan-4-yl)piperazin-1-yl]phenyl)prop-2-enamide hydrochloride] |  |  |  |  |  |  | 95.7% | 90.1% | 84.7% | not sufficiently stable | 96.5%
